# Measurements: ChEMBL document CHEMBL1142859, “Synthesis and characterization of a platinum(II) complex tethered to a ligand of the peripheral benzodiazepine receptor” (J Med Chem, 2007)
# Molecular target: Translocator protein (Rattus norvegicus, UniProt P16257)
# Test: Displacement of [3H]PK 11195 from PBR in Sprague-Dawley rat cerebral cortex
# Assay type: tissue-based
# Translocator protein, sequence (P16257 whole entry, looked up): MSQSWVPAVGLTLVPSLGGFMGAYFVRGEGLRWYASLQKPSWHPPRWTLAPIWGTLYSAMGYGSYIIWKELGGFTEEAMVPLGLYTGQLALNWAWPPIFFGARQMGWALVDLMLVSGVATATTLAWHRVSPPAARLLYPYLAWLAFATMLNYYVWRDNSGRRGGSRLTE
structure (smiles),measurement,value
CCCN(CCC)C(=O)Cc1c(-c2nccs2)nc2c(Cl)cc(Cl)cn12,IC50,2.81 nM
